Measurements reported in patent US9314522B2, “Antitumors combinations containing antibodies recognizing specifically CD38 and bortezomib” (Sanofi, priority 2010, dated 2016).
Where two headings read alike, the source gives them in different places.

Legend:
[1] = Body weight loss as index of test agent toxicity in NCI-H929 tumor-bearing mice; format: in vivo, SCID mice; conditions: days 34, 37
Source text: The animals subjected to the experiment, generally mice, are subcutaneously grafted unilaterally or bilaterally with tumor cells or fragment on day 0. The animals bearing tumors are randomized based on their tumor size before being subjected to the various treatments and controls. Chemotherapy begins when tumors have reached a predetermined size after grafting, depending on the type of tumor, and the animals are observed every day. The different animal groups are weighed daily during treatment until the maximum weight loss is reached and subsequent full weight recovery has occurred. The groups are then weighed once or twice a week until the end of the trial.
Body weights were measured twice per week as a rough index of test agent toxicity. Tumor volume and body weight were determined and recorded by Labcat software.
Toxicity was declared at dosages inducing 20% body weight loss or 10% drug death, […]

[2] = test system: NCI-H929 tumor xenografts; conditions: days 34, 37
Source text: A product is considered to be active if log10 cell kill is greater than or equal to 0.7. A product is considered to be very active if log10 cell kill is greater than or equal to 2.8.
The combination will manifest therapeutic synergy when the log10 cell kill is greater than the value of the log10 cell kill of the best constituent administered alone at its maximum tolerated dose or at its highest dose tested.
The animals subjected to the experiment, generally mice, are subcutaneously grafted unilaterally or bilaterally with tumor cells or fragment on day 0. The animals bearing tumors are randomized based on their tumor size before being subjected to the various treatments and controls. Chemotherapy begins when tumors have reached a predetermined size after grafting, depending on the type of tumor, and the animals are observed every day. […] The groups are then weighed once or twice a week until the end of the trial.
The tumors are measured 1 to 5 times a week, depending on the tumor doubling time, until the tumor reaches approximately 750 mg, or until the animal dies (if this occurs before the tumor reaches 750 mg). The animals are necropsied immediately after euthanasia or death.
Hu38SB19 and Bortezomib treatments were started thirty four days after cell inoculation and doses were calculated based on individual animal body weights determined from the last measurement taken before dosing. Administration of PBS and hu38SB19 antibody was carried out through intraperitoneal (IP) injection and bortezomib by intravenous (IV) injection via the tail vein, using a 1.0 mL syringe fitted with a 27 gauge, ½ inch needle.
Thirty-three days after tumor cell inoculation, sixty-four mice were randomized into 8 groups (n=8) by tumor volume. […] Mice in each group were identified by a puncture in the ear.
Treatment groups included PBS control (200 μL/mouse/treatment), hu38SB19 antibody (5.0 mg/kg/treatment), bortezomib (1.0, 0.6 and 0.4 mg/kg/treatment) and three combination groups with hu38SB19 (5.0 mg/kg/treatment) and bortezomib (1.0, 0.6 and 0.4 mg/kg/treatment). PBS, hu38SB19 and bortezomib were administered twice per week for one week (days 34 and 37 for a total of 2 treatments). Treatments were started on day 34 post inoculation of tumor cells.
Tumor volumes were measured one to two times weekly in three dimensions using a caliper. The tumor volume was expressed in mm^3 (or mg) using the formula: V=Length×Width×Height×½.
Tumor Free Survivors (TFS): correspond to complete regression below the limit of palpation (63 mg) for the entire duration of the study (>100 days post last treatment).

[3] = Bortezomib IV 0.4 mg/kg/injection (total 0.8)
[4] = Bortezomib IV 0.4 mg/kg/injection (total 0.8), 0.4 mg/kg
[5] = Bortezomib IV 0.4 mg/kg/injection (total 0.8), listed as bortezomib, 0.4 mg/kg
[6] = Bortezomib IV 0.6 mg/kg/injection (total 1.2)
[7] = Bortezomib IV 0.6 mg/kg/injection (total 1.2), 0.6 mg/kg
[8] = Bortezomib IV 0.6 mg/kg/injection (total 1.2), listed as bortezomib, 0.6 mg/kg
[9] = Bortezomib IV 1.0 mg/kg/injection (total 2.0)
[10] = Bortezomib IV 1.0 mg/kg/injection (total 2.0), 1 mg/kg
[11] = Bortezomib IV 1.0 mg/kg/injection (total 2.0), listed as bortezomib, 1 mg/kg

## CC(C)C[C@H](NC(=O)[C@H](Cc1ccccc1)NC(=O)c1cnccn1)B(O)O [Bortezomib, [(1R)-3-methyl-1-({(2S)-3-phenyl-2-[(pyrazin-2-ylcarbonyl)amino]propanoyl}amino)butyl]boronic acid]
[1]; Bortezomib IV 0.4 mg/kg/injection (total 0.8), nadir d36
  Average body weight loss in % per mouse at nadir (day of nadir): 0.8 (d36) %
[1]; Bortezomib IV 0.6 mg/kg/injection (total 1.2), nadir d40
  Average body weight loss in % per mouse at nadir (day of nadir): 0.6 (d40) %
[1]; Bortezomib IV 1.0 mg/kg/injection (total 2.0), nadir d36
  Average body weight loss in % per mouse at nadir (day of nadir): 7.0 (d36) %
[2]; [3]
  T-C in days (tumor growth delay): 7 days
  Time for median tumor to reach 750 mg: 69 days
  log cell kill: 0.1
[2]; [4]
  % T/C: 74%
  Comments (anti-tumor activity rating): Inactive
  TFS at day 176 (tumor free survivors): 1/8
[2]; [5]
  % T/C: 45%
  Comments (anti-tumor activity rating): inactive
  TFS at day 176 (tumor free survivors): single TFS
[2]; [6]
  T-C in days (tumor growth delay): 18 days
  Time for median tumor to reach 750 mg: 80 days
  log cell kill: 0.3
[2]; [7]
  % T/C: 45%
  Comments (anti-tumor activity rating): Inactive
  TFS at day 176 (tumor free survivors): 0/8
[2]; [8]
  % T/C: 75%
  Comments (anti-tumor activity rating): inactive
  TFS at day 176 (tumor free survivors): No TFS
[2]; [9]
  % T/C: 15%
  T-C in days (tumor growth delay): 37 days
  Time for median tumor to reach 750 mg: 99 days
  log cell kill: 0.6
[2]; [10]
  Comments (anti-tumor activity rating): Active
  TFS at day 176 (tumor free survivors): 2/8
[2]; [11]
  Comments (anti-tumor activity rating): somewhat active
  TFS at day 176 (tumor free survivors): 2
